Measured values reported in publication PMC10803810, “Interaction of designed cationic antimicrobial peptides with the outer membrane of gram-negative bacteria” (Scientific Reports, 2024).

Columns and labels:
[1] = test system: laboratory strain of B. subtilis; assay: Minimum inhibitory concentration (MIC) assay; format: cell-based, Bacillus subtilis; conditions: MHB, 10^5 CFU/well, peptide 0-50 μM, 37 °C, 20 h, OD600; average of n = 6 replicates from N = 3 biological experiments
Description: (§1) Figure 1 Minimum inhibitory concentrations (MICs) for the present peptide library against three clinical isolates of MDR P. aeruginosa and a laboratory strain of B. subtilis. Increasing concentrations of peptides were independently incubated with bacterial cells for 20 h. MIC was calculated based on bacterial growth in an untreated control and in 1% Triton. Data represent the average from n = 6 replicates from N = 3 biological experiments performed on different days; error bars depict the standard error of the mean. Asterisk denotes MIC values beyond the highest tested concentration (50 μM). TEXT PRINTED IN THE PICTURE: Ponericin W1: Isolate 004B1-3 MIC (μM): 1.17; Isolate 035B7-1 MIC (μM): 2.86; Isolate 014B2-1 MIC (μM): 4.68; B. subtilis MIC (μM): 0.65 | PonAmp: Isolate 004B1-3 MIC (μM): 1.56; Isolate 035B7-1 MIC (μM): 2.60; Isolate 014B2-1 MIC (μM): 3.12; B. subtilis MIC (μM): 0.52 | PonN: Isolate 004B1-3 MIC (μM): 1.56; Isolate 035B7-1 MIC (μM): 2.60; Isolate 014B2-1 MIC (μM): 5.20; B. subtilis MIC (μM): 1.56 | PonC: Isolate 004B1-3 MIC (μM): 1.30; Isolate 035B7-1 MIC (μM): 1.56; Isolate 014B2-1 MIC (μM): 2.86; B. subtilis MIC (μM): 1.30 | PonAmp 2A: Isolate 004B1-3 MIC (μM): 11.46; Isolate 035B7-1 MIC (μM): 50; Isolate 014B2-1 MIC (μM): 50; B. subtilis MIC (μM): 0.85 | PonN 2A: Isolate 004B1-3 MIC (μM): 1.82; Isolate 035B7-1 MIC (μM): 1.82; Isolate 014B2-1 MIC (μM): 5.20; B. subtilis MIC (μM): 2.08 | PonC 2A: Isolate 004B1-3 MIC (μM): 2.08; Isolate 035B7-1 MIC (μM): 3.64; Isolate 014B2-1 MIC (μM): 6.25; B. subtilis MIC (μM): 1.04 | PonAmp 3A: B. subtilis MIC (μM): 0.78 | PonN 3A: Isolate 004B1-3 MIC (μM): 4.69; Isolate 035B7-1 MIC (μM): 16.67; Isolate 014B2-1 MIC (μM): 23; B. subtilis MIC (μM): 8.30 | PonC 3A: Isolate 004B1-3 MIC (μM): 5.73; Isolate 035B7-1 MIC (μM): 33.33; Isolate 014B2-1 MIC (μM): 50; B. subtilis MIC (μM): 1.56 | PonAmp 4A: B. subtilis MIC (μM): 3.12 | PonN 4A: B. subtilis MIC (μM): 12.5 | PonC 4A: B. subtilis MIC (μM): 10.42
(§2) Three clinical isolates of MDR P. aeruginosa were previously obtained from CF patients with chronic infection at the Hospital for Sick Children [Research Ethics Board (REB) #1000019444] (Toronto, Canada) and selected for use in this work along with a laboratory strain of B. subtilis. Serial dilutions of peptides (10 μL) were prepared to achieve concentrations from 50 to 0 μM on a sterile 96-well clear bottom plate. Cells were resuspended in Mueller − Hinton Broth (MHB) and added at 10^5 CFU/well to achieve a final volume of 100 μL. Peptide and bacteria were allowed to incubate at 37 °C for 20 h. OD600 was measured at the end of the incubation period. Reports of MIC are background subtracted from an MHB-only control.

[2] = test system: MDR P. aeruginosa clinical isolate 004B1-3; assay: Minimum inhibitory concentration (MIC) assay; format: cell-based, Pseudomonas aeruginosa; conditions: MHB, 10^5 CFU/well, peptide 0-50 μM, 37 °C, 20 h, OD600; average of n = 6 replicates from N = 3 biological experiments; asterisk = beyond 50 μM
Description: as §1
(§3) Clinical isolates of P. aeruginosa [Research Ethics Board (REB) #1000019444] were obtained with informed consent from CF patients with chronic infection followed at the Hospital for Sick Children (Toronto, Canada)[66]. Consent was obtained from a parent or legal guardian if not of age. All methods were performed in accordance with the relevant guidelines and regulations for research involving human subjects at the Hospital for Sick Children. Antimicrobial susceptibility testing was performed as per the Clinical Laboratory Standards Institute (CLSI)[67].
as §2

[3] = test system: MDR P. aeruginosa clinical isolate 014B2-1; assay: Minimum inhibitory concentration (MIC) assay; format: cell-based, Pseudomonas aeruginosa; conditions: MHB, 10^5 CFU/well, peptide 0-50 μM, 37 °C, 20 h, OD600; average of n = 6 replicates from N = 3 biological experiments; asterisk = beyond 50 μM
Description: as §1, §3, §2

[4] = test system: MDR P. aeruginosa clinical isolate 035B7-1; assay: Minimum inhibitory concentration (MIC) assay; format: cell-based, Pseudomonas aeruginosa; conditions: MHB, 10^5 CFU/well, peptide 0-50 μM, 37 °C, 20 h, OD600; average of n = 6 replicates from N = 3 biological experiments; asterisk = beyond 50 μM
Description: as §1, §3, §2

[5] = test system: MDR isolates of P. aeruginosa; format: cell-based, Pseudomonas aeruginosa; conditions: for average MIC against MDR P. aeruginosa isolates: average over the clinical isolates
From the text: We began our investigations by testing the antimicrobial efficacy of our peptide library against P. aeruginosa, an opportunistic gram-negative bacterium found in patients with cystic fibrosis (CF)[44],[45]. MDR isolates of P. aeruginosa obtained from chronically infected CF patients were independently challenged with the peptide library using a minimum inhibitory concentration assay (MIC, defined as the lowest drug concentration required to inhibit bacterial growth). […] A similar trend is observed among the 3A analogs. At four Leu-to-Ala substitutions, activity is universally lost as the sequences no longer meet the minimum hydrophobicity threshold for spontaneous membrane insertion.
Figure 1 Minimum inhibitory concentrations (MICs) for the present peptide library against three clinical isolates of MDR P. aeruginosa and a laboratory strain of B. subtilis. Increasing concentrations of peptides were independently incubated with bacterial cells for 20 h. MIC was calculated based on bacterial growth in an untreated control and in 1% Triton. Data represent the average from n = 6 replicates from N = 3 biological experiments performed on different days; error bars depict the standard error of the mean. Asterisk denotes MIC values beyond the highest tested concentration (50 μM). […]
Three clinical isolates of MDR P. aeruginosa were previously obtained from CF patients with chronic infection at the Hospital for Sick Children [Research Ethics Board (REB) #1000019444] […] OD600 was measured at the end of the incubation period. […]

[6] = test system: LPS from P. aeruginosa 10; assay: Dansyl-polymyxin (DPX) displacement assay; format: binding, Pseudomonas aeruginosa; conditions: 3 μg/mL LPS saturated by 2.5 μM DPX, peptide added in 1 μM increments up to 10 μM, 10 mM Tris 10 mM NaCl pH 7.4; ex 340 / em 485 nm; n = 3
From the text: We then sought to evaluate whether the relative trends in antimicrobial efficacy observed between Lys-clustered versus helical amphipathic sequences against gram-negative bacteria correlate to their degree of interaction with the OM. In doing so, we tested the binding affinity of our peptide library to LPS using a Dansyl-Polymyxin (DPX) displacement assay. DPX is a fluorescently-tagged derivative of Polymyxin B that highly associates with polyanionic sites on LPS[46]. Dansyl fluorescence reaches a maximum when surrounded by a hydrophobic environment (ex. lipid A moiety of LPS), thereby enabling us to track bound and unbound states of the LPS-DPX complex. First, we empirically determined the concentration of DPX required to completely saturate a set quantity of LPS in solution (Fig. 2). Upon identifying the saturation threshold, we assessed the ability of our peptide library to outcompete for LPS binding by displacing bound DPX. […] High sequence hydrophobicity is observed to supplement peptide propensity to displace DPX as the binding affinity of PonN and PonC to LPS progressively weakens with increasing Leu-to-Ala substitutions (Fig. 3b–d).
Lyophilized stocks of LPS from P. aeruginosa 10 (#L9143) and Dansyl-labelled polymyxin B (DPX) suspended in water (#SBR00029) were purchased from Sigma. 1 mg/mL LPS was prepared in water and stored at 4 °C until use. As described in detail elsewhere, saturation of the LPS-DPX complex was first determined on a Photon Technology International fluorometer using a 1 cm cuvette. Stepwise additions of DPX (in 0.25 μM increments up to 5 μM) was added to 3 μg/mL LPS suspended in 10 mM Tris 10 mM NaCl buffer at pH 7.4. DPX fluorescence was excited at 340 nm (2 nm slit width) and emission was recorded at 485 nm (5 nm slit width).
To measure DPX displacement, peptides were independently added at 1 μM increments (up to 10 μM) to preparations containing 3 μg/mL LPS saturated by 2.5 μM DPX. DPX fluorescence was read immediately upon peptide addition. Drops in fluorescence are interpreted as the removal of DPX from LPS due to competitive binding by peptide.

[7] = in vitro dye release; cited from earlier work
From the text: In contrast, Lys-clustered PonN and PonC have been previously found to exclusively adopt random coils when exposed to liposomes composed of an approximate 3:1 ratio of PE:PG phospholipids, representative of the bacterial IM[37]. The latter configuration ostensibly deters peptide capacity for pore formation and/or carpeted assembly compared to helical amphipathic constructs such as PonAmp, which continues to display high helical propensity at both membrane interfaces. The comparatively shallow and/or transient nature of interaction between Lys-clustered constructs and the IM interface was f ...

human red blood cells = conditions: up to 50 μM; cited from earlier work
From the text: In designing the Ponericin peptide library, our principal goal is to gauge systematically how the relative distribution of charged residues influences peptide-membrane interactions. As well, hydrophobicity is of particular interest to our investigations as earlier studies on the Ponericin W1 library reveal the highly toxic nature of native Ponericin W1 against mammalian red blood cells. Thus, stepwise Leu-to-Ala substitutions (up to four substitutions) were subsequently applied to each parent analog to simultaneously evaluate the contribution of overall sequence hydrophobicity. All peptide ...

Substance	MIC, B. subtilis [1]	MIC, Isolate 004B1-3 [2]	MIC, Isolate 014B2-1 [3]	MIC, Isolate 035B7-1 [4]	average MIC against MDR P. aeruginosa isolates [5]	Displacement of DPX from LPS (change in DPX fluorescence) [6]	Rupture of liposome mimetics of the bacterial IM (dye release) [7]	MIC against MDR P. aeruginosa isolates ([5]; three clinical isolates from CF patients, isolate not specified, 20 h, highest tested 50 μM)	Toxicity against mammalian red blood cells (human red blood cells)
H-KKKKKKWAGSAAIGAALPSVVGAFQ-NH2 [PonN 4A]	12.5 µM								
H-KKKKKKWAGSAAIGAALPSVVGLFQ-NH2 [PonN 3A]	8.30 µM	4.69 µM	23 µM	16.67 µM					
H-KKKKKKWAGSAAIGALLPSVVGLFQ-NH2 [PonN 2A]	2.08 µM	1.82 µM	5.20 µM	1.82 µM	~ 3 μM				
H-KKKKKKWLGSALIGALLPSVVGLFQ-NH2 [PonN]	1.56 µM	1.56 µM	5.20 µM	2.60 µM		highly interrupt the LPS-DPX complex	more gradually		
H-WAGSAAIGAALPSVVGAFQKKKKKK-NH2 [PonC 4A]	10.42 µM								
H-WAGSAAIGAALPSVVGLFQKKKKKK-NH2 [PonC 3A]	1.56 µM	5.73 µM	50 µM	33.33 µM					
H-WAGSAAIGALLPSVVGLFQKKKKKK-NH2 [PonC 2A]	1.04 µM	2.08 µM	6.25 µM	3.64 µM	~ 4 μM				
H-WAKKAAKIGAKALPSVVKAFKGSGQ-NH2 [PonAmp 4A]	3.12 µM								
H-WAKKAAKIGAKALPSVVKLFKGSGQ-NH2 [PonAmp 3A]	0.78 µM								
H-WAKKAAKIGAKLLPSVVKLFKGSGQ-NH2 [PonAmp 2A]	0.85 µM	11.46 µM	50 µM	50 µM				50 µM	
H-WLGSALIGALLPSVVGLFQKKKKKK-NH2 [PonC]	1.30 µM	1.30 µM	2.86 µM	1.56 µM		highly interrupt the LPS-DPX complex	more gradually		
H-WLGSALKIGAKLLPSVVGLFKKKKQ-NH2 [Ponericin W1, reference compound]	0.65 µM	1.17 µM	4.68 µM	2.86 µM		negligible change in fluorescence			highly toxic
H-WLKKALKIGAKLLPSVVKLFKGSGQ-NH2 [PonAmp]	0.52 µM	1.56 µM	3.12 µM	2.60 µM		negligible change in fluorescence	ruptured instantaneously		
